Like-named read-outs stand apart in the source and are kept apart here.
Columns and labels:
EGFR (T790M) (h) = assay type: biochemical, human
Procedure: (§1) Assay conditions included 10 μM ATP and 100 nM test compounds.
(§2) All reactions are initiated by the addition of the MgATP mix. After incubation for 40 minutes at room temperature, the reaction is stopped by the addition of 3% phosphoric acid solution. 10 μL of the reaction is then spotted onto a P30 filtermat and washed three times for 5 minutes in 75 mM phosphoric acid and once in methanol prior to drying and scintillation counting. This assay is performed by Millipore. The experiment is carried out in duplicate. The value for the control sample (DMSO) was set to 100%, and the values for the compound-treated samples were expressed as activity relative to the control sample.

[1] = system: activated and resistant T790M forms of EGFR; assay: In vitro cellular assays, overall statement; assay type: cell-based; conditions: result in words
Procedure: (§3) Effects of test compounds on in vitro proliferation were measured by MTS cell viability assay.

ALK (h) = assay type: biochemical, human; conditions: 0.1 μM test compound, 10 μM ATP; remaining activity relative to DMSO control = 100%
Procedure: as §1, §2

EGFR (T790M, L858R) (h) = assay type: biochemical, human
Procedure: as §1
(§4) All reactions are initiated by the addition of the MgATP mix. After incubation for 40 minutes at room temperature, the reaction is stopped by the addition of 3% phosphoric acid solution. 10 μL of the reaction is then spotted onto a P30 filtermat and washed three times for 5 minutes in 75 mM phosphoric acid and once in methanol prior to drying and scintillation counting. […] The experiment is carried out in duplicate. The value for the control sample (DMSO) was set to 100%, and the values for the compound-treated samples were expressed as activity relative to the control sample.
(§5) (specific activity approx. 500 cpm/pmol, concentration as required) and 0.1 μM test compound.

[2] = system: A549 (EGFR WT) NSCLC cells; assay: Cell proliferation assay (MTS cell viability); assay type: cell-based; conditions: Homo sapiens, 72 h, 3 days of exposure
Procedure: as §3
A549 cells were maintained in Ham's F12K medium (Gibco) supplemented with 10% FBS, 100 units/mL penicillin, 100 units/mL streptomycin, and 2 mM glutamine.
(§6) Prepare test compounds in each well with a final medium volume of 200 μl;
Incubate for 3 days of exposure;
(§7) Prepare reagents following the instructions in the Cell Proliferation Assay kit (Promega);
(§8) Change to serum-free medium with a final volume of 100 μl/well. Prepare a set of wells with medium only for background subtraction;
(§9) Add 20 μl MTS solution containing PMS to each well (final concentration of MTS will be 0.33 mg/ml);
(§10) Incubate 1 to 4 hours at 37° C. in a humidified, 5% CO2 atmosphere.
(§11) Record absorbance at 490 nm using VICTOR™X5 plate reader (PerkinElmer).
(§12) All experimental points were set up in three wells and all experiments were repeated at least three times.

[3] = system: H1975 (EGFR L858R/T790M) NSCLC cells; assay: Cell proliferation assay (MTS cell viability); assay type: cell-based; conditions: Homo sapiens, NCI-H1975, 72 h, 3 days of exposure
Procedure: as §3, §6
Incubate for 3 days of exposure;
as §7, §8, §9, §10, §11, §12

A431 (EGFR WT) cells = assay: Cell proliferation assay (MTS cell viability); assay type: cell-based; conditions: Homo sapiens, A-431, 72 h, 3 days of exposure
Procedure: as §3
A431 cells were maintained in DMEM (Gibco) supplemented with 10% FBS, 100 units/mL penicillin, 100 units/mL streptomycin, and 2 mM glutamine.
2. Prepare test compounds in each well with a final medium volume of 200 μl;
3. Incubate for 3 days of exposure;
4. Prepare reagents following the instructions in the Cell Proliferation Assay kit (Promega);
5. Change to serum-free medium with a final volume of 100 μl/well. Prepare a set of wells with medium only for background subtraction;
6. Add 20 μl MTS solution containing PMS to each well (final concentration of MTS will be 0.33 mg/ml);
7. Incubate 1 to 4 hours at 37° C. in a humidified, 5% CO2 atmosphere.
8. Record absorbance at 490 nm using VICTOR™X5 plate reader (PerkinElmer).
as §12

[4] = system: HCC827 (EGFR Del) NSCLC cells; assay: Cell proliferation assay (MTS cell viability); assay type: cell-based; conditions: Homo sapiens, 72 h, 3 days of exposure
Procedure: as §3, §6
Incubate for 3 days of exposure;
as §7, §8, §9, §10, §11, §12

EGFR (h) = assay type: biochemical, human
Procedure: as §1, §4, §5

EGFR (L858R) (h) = assay type: biochemical, human
Procedure: as §1, §4, §5

lung cancer = conditions: all lung cancer patients, not selected for mutant EGFR; cited from earlier work
[5] = 0.1 μM test compound, 10 μM ATP, remaining activity relative to DMSO control = 100%

## C=CC(=O)Nc1cc(Nc2ncc(Cl)c(Nc3ccccc3C(=O)C(=O)N(C)C)n2)ccc1OC [Example 65, N-(5-(5-chloro-4-(2-(2-(dimethylamino)-2-oxoacetyl)phenylamino)pyrimidin-2-ylamino)-2-methoxyphenyl)acrylamide]
EGFR (T790M) (h); [5]
  Activity (control) % EGFR (T790M) (h): 80%
[1]
  activity against both activated and resistant T790M forms of EGFR in vitro cellular assays: potent activity
ALK (h)
  Activity (control) % ALK (h): 19%
EGFR (T790M, L858R) (h); [5]
  Activity (control) % EGFR (T790M, L858R) (h): 25%

## C=CC(=O)Nc1cc(Nc2ncc(Cl)c(Nc3ccccc3C(=O)C(=O)N(C)C)n2)c(OC)cc1F [Example 66, N-(5-(5-chloro-4-(2-(2-(dimethylamino)-2-oxoacetyl)phenylamino)pyrimidin-2-ylamino)-2-fluoro-4-methoxyphenyl)acrylamide]
EGFR (T790M) (h); [5]
  Activity (control) % EGFR (T790M) (h): 66%
[1]
  activity against both activated and resistant T790M forms of EGFR in vitro cellular assays: potent activity
ALK (h)
  Activity (control) % ALK (h): 35%
EGFR (T790M, L858R) (h); [5]
  Activity (control) % EGFR (T790M, L858R) (h): 24%

## C=CC(=O)Nc1cc(Nc2ncc(Cl)c(Nc3ccccc3C(=O)C(=O)N(C)C)n2)c(OC)cc1N1CCN(C)CC1 [Example 74, N-(5-(5-chloro-4-(2-(2-(dimethylamino)-2-oxoacetyl)phenylamino)pyrimidin-2-ylamino)-4-methoxy-2-(4-methylpiperazin-1-yl)phenyl)acrylamide]
[2]
  IC50: 620 nM
[3]
  IC50: 50 nM
EGFR (T790M) (h)
  Activity (control) % EGFR (T790M) (h): 62%
ALK (h)
  Activity (control) % ALK (h): 9%
A431 (EGFR WT) cells
  IC50: 50 nM
[4]
  IC50: 30 nM
EGFR (h)
  Activity (control) % EGFR (h): 110%

## C=C(CN1CCCCC1)C(=O)Nc1cccc(Nc2ncc(Cl)c(Nc3ccccc3C(=O)C(=O)N(C)C)n2)c1 [Example 113, N-(3-(5-chloro-4-(2-(2-(dimethylamino)-2-oxoacetyl)phenylamino)pyrimidin-2-ylamino)phenyl)-2-(piperidin-1-ylmethyl)acrylamide]
EGFR (T790M) (h); [5]
  Activity (control) % EGFR (T790M) (h): 16%
ALK (h)
  Activity (control) % ALK (h): 19%
EGFR (L858R) (h); [5]
  Activity (control) % EGFR (L858R) (h): 78%
EGFR (T790M, L858R) (h); [5]
  Activity (control) % EGFR (T790M, L858R) (h): 3%
EGFR (h); [5]
  Activity (control) % EGFR (h): 88%

## C=C(CN1CCOCC1)C(=O)Nc1cccc(Nc2ncc(Cl)c(Nc3ccccc3C(=O)C(=O)N(C)C)n2)c1 [Example 112, N-(3-(5-chloro-4-(2-(2-(dimethylamino)-2-oxoacetyl)phenylamino)pyrimidin-2-ylamino)phenyl)-2-(morpholinomethyl)acrylamide]
EGFR (T790M) (h); [5]
  Activity (control) % EGFR (T790M) (h): 14%
[1]
  activity against both activated and resistant T790M forms of EGFR in vitro cellular assays: potent activity
ALK (h)
  Activity (control) % ALK (h): 21%
EGFR (L858R) (h); [5]
  Activity (control) % EGFR (L858R) (h): 66%
EGFR (T790M, L858R) (h); [5]
  Activity (control) % EGFR (T790M, L858R) (h): 1%
EGFR (h); [5]
  Activity (control) % EGFR (h): 85%

## C=C(CN1CCCCC1)C(=O)Nc1ccc(OC)c(Nc2ncc(Cl)c(Nc3ccccc3C(=O)C(=O)N(C)C)n2)c1 [Example 73, N-(3-(5-chloro-4-(2-(2-(dimethylamino)-2-oxoacetyl)phenylamino)pyrimidin-2-ylamino)-4-methoxyphenyl)-2-(piperidin-1-ylmethyl)acrylamide]
EGFR (T790M) (h); [5]
  Activity (control) % EGFR (T790M) (h): 3%
ALK (h)
  Activity (control) % ALK (h): 17%
EGFR (L858R) (h); [5]
  Activity (control) % EGFR (L858R) (h): 37%
EGFR (T790M, L858R) (h); [5]
  Activity (control) % EGFR (T790M, L858R) (h): 3%
EGFR (h); [5]
  Activity (control) % EGFR (h): 67%

## COc1cc(Nc2ncc(Cl)c(Nc3ccccc3C(=O)C(=O)N(C)C)n2)ccc1N1CCC(N(C)C)CC1 [Example 118, 2-(2-(5-chloro-2-(4-(4-(dimethylamino)piperidin-1-yl)-3-methoxyphenylamino)pyrimidin-4-ylamino)phenyl)-N,N-dimethyl-2-oxoacetamide]
EGFR (T790M) (h)
  Activity (control) % EGFR (T790M) (h): 18%
[1]
  activity against both activated and resistant T790M forms of EGFR in vitro cellular assays: potent activity
ALK (h)
  Activity (control) % ALK (h): 3%
EGFR (L858R) (h)
  Activity (control) % EGFR (L858R) (h): 29%
EGFR (T790M, L858R) (h)
  Activity (control) % EGFR (T790M, L858R) (h): 2%
EGFR (h)
  Activity (control) % EGFR (h): 82%

## C=CC(=O)Nc1ccc(OC)c(Nc2ncc(Cl)c(Nc3ccccc3C(=O)C(=O)N(C)C)n2)c1 [Example 67, N-(3-(5-chloro-4-(2-(2-(dimethylamino)-2-oxoacetyl)phenylamino)pyrimidin-2-ylamino)-4-methoxyphenyl)acrylamide]
EGFR (T790M) (h)
  Activity (control) % EGFR (T790M) (h): 50%
[1]
  activity against both activated and resistant T790M forms of EGFR in vitro cellular assays: potent activity
ALK (h)
  Activity (control) % ALK (h): 13%
EGFR (L858R) (h)
  Activity (control) % EGFR (L858R) (h): 85%
EGFR (T790M, L858R) (h)
  Activity (control) % EGFR (T790M, L858R) (h): 9%

## C=CC(=O)Nc1cc(Nc2ncc(Cl)c(Nc3ccccc3C(=O)C(=O)N(C)CCN(C)C)n2)ccc1OC [Example 102, N-(5-(5-chloro-4-(2-(2-((2-(dimethylamino)ethyl)(methyl)amino)-2-oxoacetyl)phenylamino)pyrimidin-2-ylamino)-2-methoxyphenyl)acrylamide]
EGFR (T790M) (h); [5]
  Activity (control) % EGFR (T790M) (h): 40%
ALK (h)
  Activity (control) % ALK (h): 5%
EGFR (L858R) (h); [5]
  Activity (control) % EGFR (L858R) (h): 57%
EGFR (T790M, L858R) (h); [5]
  Activity (control) % EGFR (T790M, L858R) (h): 5%
EGFR (h); [5]
  Activity (control) % EGFR (h): 98%

## C#Cc1cccc(Nc2ncnc3cc(OCCOC)c(OCCOC)cc23)c1 [erlotinib]
Lung cancer
  likelihood of tumor shrinkage (response rate): 8-10%
  median time to tumor progression: approximately 2 months

## C=C(CN(C)C)C(=O)Nc1ccc(OC)c(Nc2ncc(Cl)c(Nc3ccccc3C(=O)C(=O)N(C)C)n2)c1 [Example 78, N-(3-(5-chloro-4-(2-(2-(dimethylamino)-2-oxoacetyl)phenylamino)pyrimidin-2-ylamino)-4-methoxyphenyl)-2-((dimethylamino)methyl)acrylamide]
EGFR (T790M) (h); [5]
  Activity (control) % EGFR (T790M) (h): 2%
ALK (h)
  Activity (control) % ALK (h): 36%
EGFR (L858R) (h); [5]
  Activity (control) % EGFR (L858R) (h): 37%
EGFR (T790M, L858R) (h); [5]
  Activity (control) % EGFR (T790M, L858R) (h): 3%
EGFR (h); [5]
  Activity (control) % EGFR (h): 68%

## COc1cc(Nc2ncc(Cl)c(Nc3ccccc3C(=O)C(=O)N(C)C)n2)ccc1N1CCN(C(C)=O)CC1 [Example 94, 2-(2-(2-(4-(4-acetylpiperazin-1-yl)-3-methoxyphenylamino)-5-chloropyrimidin-4-ylamino)phenyl)-N,N-dimethyl-2-oxoacetamide]
EGFR (T790M) (h); [5]
  Activity (control) % EGFR (T790M) (h): 45%
ALK (h)
  Activity (control) % ALK (h): 6%
EGFR (L858R) (h); [5]
  Activity (control) % EGFR (L858R) (h): 84%
EGFR (T790M, L858R) (h); [5]
  Activity (control) % EGFR (T790M, L858R) (h): 9%
EGFR (h); [5]
  Activity (control) % EGFR (h): 100%

## COc1ccc(NC(=O)/C=C/CN2CCOCC2)cc1Nc1ncc(Cl)c(Nc2ccccc2C(=O)C(=O)N(C)C)n1 [Example 79, (E)-N-(3-(5-chloro-4-(2-(2-(dimethylamino)-2-oxoacetyl)phenylamino)pyrimidin-2-ylamino)-4-methoxyphenyl)-4-morpholinobut-2-enamide]
EGFR (T790M) (h); [5]
  Activity (control) % EGFR (T790M) (h): 16%
ALK (h)
  Activity (control) % ALK (h): 7%
EGFR (L858R) (h); [5]
  Activity (control) % EGFR (L858R) (h): 25%
EGFR (T790M, L858R) (h); [5]
  Activity (control) % EGFR (T790M, L858R) (h): 2%
EGFR (h); [5]
  Activity (control) % EGFR (h): 92%

## C=CC(=O)Nc1cc(Nc2ncc(Cl)c(Nc3ccccc3C(=O)C(=O)N(C)C)n2)ccc1OC1CCOC1 (stereo not drawn) [Example 124, N-(5-(5-chloro-4-(2-(2-(dimethylamino)-2-oxoacetyl)phenylamino)pyrimidin-2-ylamino)-2-(tetrahydrofuran-3-yloxy)phenyl)acrylamide]
EGFR (T790M) (h); [5]
  Activity (control) % EGFR (T790M) (h): 78%
ALK (h)
  Activity (control) % ALK (h): 16%
EGFR (L858R) (h); [5]
  Activity (control) % EGFR (L858R) (h): 100%
EGFR (T790M, L858R) (h); [5]
  Activity (control) % EGFR (T790M, L858R) (h): 20%
EGFR (h); [5]
  Activity (control) % EGFR (h): 109%

## C=CC(=O)Nc1ccc(OC)c(Nc2ncc(Cl)c(Nc3ccccc3C(=O)C(=O)N3CCN(C)CC3)n2)c1 [Example 89, N-(3-(5-chloro-4-(2-(2-(4-methylpiperazin-1-yl)-2-oxoacetyl)phenylamino)pyrimidin-2-ylamino)-4-methoxyphenyl)acrylamide]
EGFR (T790M) (h); [5]
  Activity (control) % EGFR (T790M) (h): 5%
ALK (h)
  Activity (control) % ALK (h): 8%
EGFR (L858R) (h); [5]
  Activity (control) % EGFR (L858R) (h): 10%
EGFR (T790M, L858R) (h); [5]
  Activity (control) % EGFR (T790M, L858R) (h): 1%
EGFR (h); [5]
  Activity (control) % EGFR (h): 67%

## C=CC(=O)Nc1cc(Nc2ncc(C)c(Nc3ccccc3C(=O)C(=O)N(C)C)n2)ccc1OC [Example 101, N-(5-(4-(2-(2-(dimethylamino)-2-oxoacetyl)phenylamino)-5-methylpyrimidin-2-ylamino)-2-methoxyphenyl)acrylamide]
EGFR (T790M) (h); [5]
  Activity (control) % EGFR (T790M) (h): 83%
ALK (h)
  Activity (control) % ALK (h): 35%
EGFR (L858R) (h); [5]
  Activity (control) % EGFR (L858R) (h): 94%
EGFR (T790M, L858R) (h); [5]
  Activity (control) % EGFR (T790M, L858R) (h): 41%
EGFR (h); [5]
  Activity (control) % EGFR (h): 110%

## C=C(CN1CCCC1)C(=O)Nc1ccc(OC)c(Nc2ncc(Cl)c(Nc3ccccc3C(=O)C(=O)N(C)C)n2)c1 [Example 97, N-(3-(5-chloro-4-(2-(2-(dimethylamino)-2-oxoacetyl)phenylamino)pyrimidin-2-ylamino)-4-methoxyphenyl)-2-(pyrrolidin-1-ylmethyl)acrylamide]
EGFR (T790M) (h); [5]
  Activity (control) % EGFR (T790M) (h): 2%
ALK (h)
  Activity (control) % ALK (h): 23%
EGFR (L858R) (h); [5]
  Activity (control) % EGFR (L858R) (h): 46%
EGFR (T790M, L858R) (h); [5]
  Activity (control) % EGFR (T790M, L858R) (h): 6%
EGFR (h); [5]
  Activity (control) % EGFR (h): 74%

Reference: patent US9783524B2, “Protein tyrosine kinase modulators and methods of use” (BETTA PHARMACEUTICALS CO., LTD., priority 2013, dated 2017)
